Where two headings read alike, the source gives them in different places.
Experiments:
Format in all cases: biochemical
[1] = molecular target: T1, human type 1 5α-reductase (Homo sapiens, UniProt P18405); assay: Inhibition of human type 1 steroid 5α-reductase (microsomes; testosterone to DHT conversion)
T1 construct: made in house; host or cells: Sf9 insect cells, recombinant baculovirus; microsomes
T1 sequence (P18405 1-259): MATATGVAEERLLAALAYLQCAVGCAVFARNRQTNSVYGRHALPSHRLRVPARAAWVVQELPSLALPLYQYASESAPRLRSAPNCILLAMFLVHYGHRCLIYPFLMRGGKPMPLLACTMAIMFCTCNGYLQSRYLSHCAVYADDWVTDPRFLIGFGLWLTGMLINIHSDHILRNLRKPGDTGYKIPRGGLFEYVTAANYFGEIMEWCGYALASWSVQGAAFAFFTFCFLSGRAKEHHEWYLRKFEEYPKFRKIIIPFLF
Protocol: (§1) Enzyme activities may be determined using microsomes derived from: 1) prostate tissue from benign prostatic hyperplasia (BPH) patients; 2) recombinant baculovirus infected SF9 cells that express human type 1 5α-reductase; or 3) recombinant baculovirus infected SF9 cells that express human type 2 5α-reductase. Microsomes were prepared by homogenization of the tissue or cells, followed by differential centrifugation of the homogenate. Microsome extracts were incubated with varying concentrations of [1,2,6,7-^3 H]-testosterone, 1 mM NADPH, and varying amounts of the compounds of formula (I,) i.e. a test compound, in buffer containing a NADPH regenerating system capable of maintaining NADPH concentrations for a period of time within the range 0.5-240 minutes. Corresponding incubations were carried out with no test compound as a control study.
(§2) For type 1 IC50 measurements, assay components except testosterone were preincubated for 10 minutes at pH 7.0, and following the addition of 100 nM testosterone the assays were allowed to proceed for 10-120 minutes. For type 2 IC50 measurements, assay components except testosterone were preincubated for 20 minutes at pH 6.0, and following the addition of 8 nM testosterone the assays were allowed to proceed for 20-40 minutes. The percentage of conversion of testosterone to DHT in the presence of test compounds compared to the corresponding conversion in the control study was estimated using high performance liquid chromatography (HPLC) with radiochemical detection.

[2] = molecular target: T2, human type 2 5α-reductase (Homo sapiens, UniProt P31213); assay: Inhibition of human type 2 steroid 5α-reductase (microsomes; testosterone to DHT conversion); conditions: 20 min preincubation, pH 6.0, 8 nM testosterone, 20-40 min, 1 mM NADPH; read-out: IC50 Human Type 2 5AR
T2 construct: made in house; host or cells: Sf9 insect cells, recombinant baculovirus; microsomes
T2 sequence (P31213 1-254): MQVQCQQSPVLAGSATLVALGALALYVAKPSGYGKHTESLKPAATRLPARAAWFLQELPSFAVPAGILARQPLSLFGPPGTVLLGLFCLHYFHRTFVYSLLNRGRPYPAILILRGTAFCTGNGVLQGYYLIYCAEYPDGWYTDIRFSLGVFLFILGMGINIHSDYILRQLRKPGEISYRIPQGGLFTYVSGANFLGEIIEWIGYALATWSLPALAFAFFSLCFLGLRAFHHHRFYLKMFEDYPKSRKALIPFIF
Protocol: as §1, §2

[3] = molecular target: T3, Human Adrenal 3BHSD (Homo sapiens, UniProt P26439); assay: Inhibition of human adrenal 3β-hydroxy-Δ^5-steroid dehydrogenase/3-keto-Δ^5-steroid isomerase (3BHSD) (microsomes; DHEA to androstenedione conversion); conditions: 1 mM NAD+, pH 7.5, 1 to 60 minutes
T3 construct: microsomes derived from human adrenal tissues; from tissue; host or cells: human adrenal tissue, microsomes
T3 sequence (P26439 1-372): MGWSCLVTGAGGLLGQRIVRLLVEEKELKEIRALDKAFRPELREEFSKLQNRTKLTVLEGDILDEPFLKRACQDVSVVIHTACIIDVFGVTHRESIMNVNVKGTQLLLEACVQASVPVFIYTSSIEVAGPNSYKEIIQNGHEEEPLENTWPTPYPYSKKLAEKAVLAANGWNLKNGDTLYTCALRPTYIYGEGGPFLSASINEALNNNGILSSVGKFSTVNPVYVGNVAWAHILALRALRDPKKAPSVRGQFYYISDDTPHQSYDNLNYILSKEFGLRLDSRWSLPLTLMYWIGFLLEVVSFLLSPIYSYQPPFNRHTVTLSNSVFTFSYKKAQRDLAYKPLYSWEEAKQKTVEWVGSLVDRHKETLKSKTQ
Protocol: Enzyme activities are measured using microsomes derived from human adrenal tissues. Microsomes were prepared by homogenization of the tissue followed by differential centrifugation of the homogenate. Microsome extracts were incubated with varying concentrations of dehydroepiandrosterone (DHEA), 1 mM NAD+, and varying amounts of the compounds of Formula (I), i.e. a test compound, in pH 7.5 buffer for a period of time within the range of 1 to 60 minutes. Corresponding incubations were carried out with no test compound as a control study. The percentage of conversion of DHEA to androstenedione in the presence of test compounds compared to the corresponding conversion in the control study was estimated using HPLC with radiochemical detection.

[4] = 10 min preincubation, pH 7.0, 100 nM testosterone, 10-120 min, 1 mM NADPH, read-out: IC50 Human Type 1 5AR

Row | Compound | IC50 [1, 4] [nM] | IC50 [2] [nM] | Ki [3] [nM] | IC50 [1] [nM]
1 | C[C@]12C=CC(=O)N[C@@H]1CC[C@@H]1[C@@H]2CC[C@]2(C)[C@@H](C(=O)NC3(c4ccc(F)cc4)CCCC3)CC[C@@H]12 [Compound 9, 17β-N-1-(4-Fluorophenyl)cyclopentylcarbamoyl-4-aza-5α-androst-1-en-3-one] | 1 to 10 | < 1 | > 1000 | –
2 | CC(C)(C)c1ccc(C(C)(C)C)c(NC(=O)[C@H]2CC[C@H]3[C@@H]4CC[C@H]5NC(=O)CC[C@]5(C)[C@H]4CC[C@]23C)c1 [Compound 28, 17β-N-(2,5-Di-t-butyl)phenylcarbamoyl-4-aza-5α-androstan-3-one] | 1 to 10 | < 1 | > 1000 | –
3 | C[C@]12C=CC(=O)N[C@@H]1CC[C@@H]1[C@@H]2CC[C@]2(C)[C@@H](C(=O)NC3(c4ccc(Cl)cc4)CCCC3)CC[C@@H]12 [Compound 3, 17β-N-1-(4-chlorophenyl)cyclopentylcarbamoyl-4-aza-5α-androst-1-en-3-one] | – | < 1 | > 1000 | < 1
4 | C[C@]12C=CC(=O)N[C@@H]1CC[C@@H]1[C@@H]2CC[C@]2(C)[C@@H](C(=O)NC3(c4cccc(C(F)(F)F)c4)CCCC3)CC[C@@H]12 [Compound 19, 17β-N-1-(3-Trifluoromethylphenyl)cyclopentylcarbamoyl-4-aza-5α-androst-1-en-3-one] | 1 to 10 | < 1 | > 1000 | –
5 | CC(C)(C)c1ccc(C2(NC(=O)[C@H]3CC[C@H]4[C@@H]5CC[C@H]6NC(=O)C=C[C@]6(C)[C@H]5CC[C@]34C)CCOCC2)cc1 [Compound 14, 17β-N-4-(4-t-Butylphenyl)tetrahydropyranylcarbamoyl-4-aza-5α-androst-1-en-3-one] | 1 to 10 | < 1 | > 1000 | –
6 | C[C@]12C=CC(=O)N[C@@H]1CC[C@@H]1[C@@H]2CC[C@]2(C)[C@@H](C(=O)NC3(c4ccc5c(c4)OCO5)CCCCC3)CC[C@@H]12 [Compound 12, 17β-N-1-(3,4-Methylenedioxyphenyl)cyclohexylcarbamoyl-4-aza-5α-androst-1-en-3-one] | 10 to 10000 | < 1 | 10 to 10000 | –
7 | C[C@]12C=CC(=O)N[C@@H]1CC[C@@H]1[C@@H]2CC[C@]2(C)[C@@H](C(=O)NC3(c4ccc(F)cc4)CCCCC3)CC[C@@H]12 [Compound 10, 17β-N-1-(4-Fluorophenyl)cyclohexylcarbamoyl-4-aza-5α-androst-1-en-3-one] | 1 to 10 | < 1 | > 1000 | –
8 | C[C@H]1C[C@H]2NC(=O)C=C[C@]2(C)[C@H]2CC[C@]3(C)[C@@H](C(=O)NC4(c5ccc(Cl)cc5)CCCC4)CC[C@H]3[C@H]12 [Compound 32, 17β-N-1-(4-Chlorophenyl)cyclopentylcarbamoyl-4-aza-7β-methyl-5α-androst-1-en-3-one] | 1 to 10 | < 1 | > 1000 | –
9 | C[C@H]1C[C@H]2NC(=O)C=C[C@]2(C)[C@H]2CC[C@]3(C)[C@@H](C(=O)Nc4cc(C(F)(F)F)ccc4C(F)(F)F)CC[C@H]3[C@H]12 [Compound 30, 17β-N-(2,5-bis(Trifluoromethyl))phenylcarbamoyl-4-aza-7β-methyl-5α-androst-1-en-3-one] | 1 to 10 | 1 to 10 | > 1000 | –
10 | CC(C)(C)c1ccc(C2(NC(=O)[C@H]3CC[C@H]4[C@@H]5CC[C@H]6NC(=O)C=C[C@]6(C)[C@H]5CC[C@]34C)CCCCC2)cc1 [Compound 5, 17β-N-1-(4-t-Butylphenyl)cyclohexylcarbamoyl-4-aza-5α-androst-1-en-3-one] | 1 to 10 | < 1 | > 1000 | –
11 | COc1ccc(C2(NC(=O)[C@H]3CC[C@H]4[C@@H]5CC[C@H]6NC(=O)C=C[C@]6(C)[C@H]5CC[C@]34C)CCCCC2)cc1 [Compound 11, 17β-N-1-(4-Methoxyphenyl)cyclohexylcarbamoyl-4-aza-5α-androst-1-en-3-one] | 1 to 10 | < 1 | > 1000 | –
12 | CC(C)(C)c1ccc(C2(NC(=O)[C@H]3CC[C@H]4[C@@H]5CC[C@H]6NC(=O)C=C[C@]6(C)[C@H]5CC[C@]34C)CCC(C(C)(C)C)CC2)cc1 (stereo partly drawn) [Compound 18, 17β-N-1-(4-t-Butylphenyl)-4-t-Butylcyclohexylcarbamoyl-4-aza-5α-androst-1-en-3-one] | 1 to 10 | < 1 | > 1000 | –

Now from value to compound, other results behind:

Row | IC50 [1, 4] [nM] | IC50 [2] [nM] | Ki [3] [nM] | Compound | IC50 [1] [nM]
13 | 1 to 10 | < 1 | 10 to 10000 | CC(C)(C)c1ccc(C(C)(C)C)c(NC(=O)[C@H]2CC[C@H]3[C@@H]4CC[C@H]5NC(=O)C=C[C@]5(C)[C@H]4CC[C@]23C)c1 [Compound 27, 17β-N-(2,5-Di-t-butyl)phenylcarbamoyl-4-aza-5α-androst-1-en-3-one] | –
14 | 1 to 10 | < 1 | > 1000 | C[C@]12C=CC(=O)N[C@@H]1CC[C@@H]1[C@@H]2CC[C@]2(C)[C@@H](C(=O)NC3(c4ccc(Cl)cc4)CCCCC3)CC[C@@H]12 [Compound 6, 17β-N-1-(4-Chlorophenyl)cyclohexylcarbamoyl-4-aza-5α-androst-1-en-3-one] | –
15 | 1 to 10 | < 1 | > 1000 | CCC1(CC)CC1(NC(=O)[C@H]1CC[C@H]2[C@@H]3CC[C@H]4NC(=O)C=C[C@]4(C)[C@H]3CC[C@]12C)c1ccc(C(F)(F)F)cc1 (stereo partly drawn) [Compound 16, 17β-N-1-(4-Trifluoromethylphenyl)-2,2-diethylcyclopropylcarbamoyl-4-aza-5α-androst-1-en-3-one] | –
16 | < 1 | < 1 | > 1000 | CC1(C)CCC(NC(=O)[C@H]2CC[C@H]3[C@@H]4CC[C@H]5NC(=O)C=C[C@]5(C)[C@H]4CC[C@]23C)(c2ccc(C(C)(C)C)cc2)CC1 [Compound 17, 17β-N-1-(4-t-Butylphenyl)-4,4-dimethylcyclohexylcarbamoyl-4-aza-5α-androst-1-en-3-one] | –
17 | 1 to 10 | < 1 | > 1000 | C[C@]12CCC(=O)N[C@@H]1CC[C@@H]1[C@@H]2CC[C@]2(C)[C@@H](C(=O)NC3(c4ccc(Cl)cc4)CCCC3)CC[C@@H]12 [Compound 1, 17β-N-1-(4-Chlorophenyl)cyclopentylcarbamoyl-4-aza-5α-androstan-3-one] | –
18 | 1 to 10 | < 1 | > 1000 | CC(C)(C)c1ccc(C2(NC(=O)[C@H]3CC[C@H]4[C@@H]5CC[C@H]6NC(=O)C=C[C@]6(C)[C@H]5CC[C@]34C)CCCC2)cc1 [Compound 4, 17β-N-1-(4-t-Butylphenyl)cyclopentylcarbamoyl-4-aza-5α-androst-1-en-3-one] | –
19 | < 1 | < 1 | 10 to 10000 | CN1C(=O)CC[C@]2(C)[C@H]3CC[C@]4(C)[C@@H](C(=O)Nc5cc(C(C)(C)C)ccc5C(C)(C)C)CC[C@H]4[C@@H]3CC[C@@H]12 [Compound 29, 17β-N-(2,5-Di-t-butyl)phenylcarbamoyl-4-methyl-4-aza-5α-androstan-3-one] | –
20 | < 1 | < 1 | > 1000 | CC(C)(C)c1ccc(C2(NC(=O)[C@H]3CC[C@H]4[C@@H]5CC[C@H]6NC(=O)C=C[C@]6(C)[C@H]5CC[C@]34C)CCSCC2)cc1 [Compound 20, 17β-N-4-(4-t-Butylphenyl)tetrahydrothiopyranylcarbamoyl-4-aza-5α-androst-1-en-3-one] | –

— patent US5817818A, “Androstenones” (Glaxo Wellcome Inc., priority 1996, dated 1998)
